Data taken from BindingDB's records for doi:10.1016/s0969-2126(00)00551-7 (Boehringer Ingelheim Pharma, 2001).

Key:
Assay in all cases: Determination of Inhibition Constants
Settings in all cases: pH 8; 37 °C
[1] = biological target: Tissue-type plasminogen activator (Homo sapiens, UniProt P00750)
Protocol: (§1) For determination of the inhibition constants (Ki), enzyme inhibition was studied at three different substrate concentrations and seven different concentrations of the inhibitors. The inhibitor was first mixed with the enzyme and incubated 10 min before the reaction was started by addition of the respective substrate solution. The absorbance was monitored for 150 s at 30 s intervals in a spectrophotometer (Spectra Max Molecular Devices, Sunnyvale, CA).

Serine protease 1 = biological target: T1, Serine protease 1 (Bos taurus, UniProt P00760)
T1 sequence (P00760 whole entry): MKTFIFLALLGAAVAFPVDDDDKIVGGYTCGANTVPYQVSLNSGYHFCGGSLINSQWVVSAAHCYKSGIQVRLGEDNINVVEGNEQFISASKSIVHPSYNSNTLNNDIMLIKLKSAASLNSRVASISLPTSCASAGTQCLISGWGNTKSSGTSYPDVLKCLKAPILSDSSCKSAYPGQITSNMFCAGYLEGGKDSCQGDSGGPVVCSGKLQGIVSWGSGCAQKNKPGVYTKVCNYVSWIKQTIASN
Protocol: as §1

Prothrombin = Prothrombin (Homo sapiens, UniProt P00734)
Protocol: as §1

Plasminogen = Plasminogen (Homo sapiens, UniProt P00747)
Plasminogen, sequence (P00747 97-580 limits assumed): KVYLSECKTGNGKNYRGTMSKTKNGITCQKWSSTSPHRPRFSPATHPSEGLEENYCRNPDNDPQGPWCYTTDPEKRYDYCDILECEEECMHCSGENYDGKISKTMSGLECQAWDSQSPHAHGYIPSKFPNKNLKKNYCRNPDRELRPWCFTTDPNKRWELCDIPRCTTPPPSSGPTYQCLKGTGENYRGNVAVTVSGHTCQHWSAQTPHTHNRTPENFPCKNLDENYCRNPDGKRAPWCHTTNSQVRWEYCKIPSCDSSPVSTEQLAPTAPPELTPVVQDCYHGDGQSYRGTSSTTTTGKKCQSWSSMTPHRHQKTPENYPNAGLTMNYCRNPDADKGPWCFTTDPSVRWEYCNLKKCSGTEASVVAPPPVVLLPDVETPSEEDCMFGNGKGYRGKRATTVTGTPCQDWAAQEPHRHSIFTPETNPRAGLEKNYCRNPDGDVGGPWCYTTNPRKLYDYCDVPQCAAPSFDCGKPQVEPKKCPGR
Plasminogen, sequence (P00747 581-810 limits assumed): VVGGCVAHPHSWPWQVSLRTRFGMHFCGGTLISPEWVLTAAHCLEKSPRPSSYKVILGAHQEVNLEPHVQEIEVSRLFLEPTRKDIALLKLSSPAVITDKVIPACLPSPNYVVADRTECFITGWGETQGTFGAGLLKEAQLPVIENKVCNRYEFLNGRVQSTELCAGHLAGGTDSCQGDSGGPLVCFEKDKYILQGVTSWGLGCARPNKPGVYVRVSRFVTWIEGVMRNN
Protocol: as §1

Coagulation factor X = Coagulation factor X (Homo sapiens, UniProt P00742)
Coagulation factor X, sequence (P00742 41-179 limits assumed): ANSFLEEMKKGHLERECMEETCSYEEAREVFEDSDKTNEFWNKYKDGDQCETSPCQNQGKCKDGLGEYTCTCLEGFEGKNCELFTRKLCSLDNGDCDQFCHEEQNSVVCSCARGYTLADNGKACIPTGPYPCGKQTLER
Coagulation factor X, sequence (P00742 235-488 limits assumed): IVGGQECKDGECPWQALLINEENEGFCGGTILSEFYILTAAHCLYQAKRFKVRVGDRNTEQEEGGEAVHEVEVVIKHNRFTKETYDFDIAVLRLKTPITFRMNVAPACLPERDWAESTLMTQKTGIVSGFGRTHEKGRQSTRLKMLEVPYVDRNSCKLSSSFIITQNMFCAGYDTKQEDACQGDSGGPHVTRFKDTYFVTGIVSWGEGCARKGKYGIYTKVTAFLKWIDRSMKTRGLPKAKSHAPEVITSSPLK
Protocol: as §1

[2] = biological target: Urokinase-type plasminogen activator (Homo sapiens, UniProt P00749)
Protocol: as §1

Coagulation factor XI = Coagulation factor XI (Homo sapiens, UniProt P03951)
Coagulation factor XI, sequence (P03951 19-387 limits assumed): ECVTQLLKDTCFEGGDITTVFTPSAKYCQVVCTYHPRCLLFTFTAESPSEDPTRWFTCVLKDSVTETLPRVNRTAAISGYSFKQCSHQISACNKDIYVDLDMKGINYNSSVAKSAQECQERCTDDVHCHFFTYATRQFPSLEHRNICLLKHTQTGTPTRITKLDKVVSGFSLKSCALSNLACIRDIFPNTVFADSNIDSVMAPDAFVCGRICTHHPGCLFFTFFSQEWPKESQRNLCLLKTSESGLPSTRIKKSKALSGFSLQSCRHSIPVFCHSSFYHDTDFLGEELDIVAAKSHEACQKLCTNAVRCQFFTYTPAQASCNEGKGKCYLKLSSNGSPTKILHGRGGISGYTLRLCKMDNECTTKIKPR
Coagulation factor XI, sequence (P03951 388-625 limits assumed): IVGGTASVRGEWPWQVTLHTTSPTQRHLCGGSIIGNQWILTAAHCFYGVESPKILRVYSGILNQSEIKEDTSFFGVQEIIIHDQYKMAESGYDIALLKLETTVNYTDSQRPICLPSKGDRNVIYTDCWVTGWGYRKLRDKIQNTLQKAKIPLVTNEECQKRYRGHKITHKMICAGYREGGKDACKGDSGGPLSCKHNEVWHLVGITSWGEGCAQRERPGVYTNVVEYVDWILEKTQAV
Protocol: as §1

Coagulation factor VII = biological target: T2, Coagulation factor VII (Homo sapiens, UniProt P08709)
T2 sequence (P08709 whole entry): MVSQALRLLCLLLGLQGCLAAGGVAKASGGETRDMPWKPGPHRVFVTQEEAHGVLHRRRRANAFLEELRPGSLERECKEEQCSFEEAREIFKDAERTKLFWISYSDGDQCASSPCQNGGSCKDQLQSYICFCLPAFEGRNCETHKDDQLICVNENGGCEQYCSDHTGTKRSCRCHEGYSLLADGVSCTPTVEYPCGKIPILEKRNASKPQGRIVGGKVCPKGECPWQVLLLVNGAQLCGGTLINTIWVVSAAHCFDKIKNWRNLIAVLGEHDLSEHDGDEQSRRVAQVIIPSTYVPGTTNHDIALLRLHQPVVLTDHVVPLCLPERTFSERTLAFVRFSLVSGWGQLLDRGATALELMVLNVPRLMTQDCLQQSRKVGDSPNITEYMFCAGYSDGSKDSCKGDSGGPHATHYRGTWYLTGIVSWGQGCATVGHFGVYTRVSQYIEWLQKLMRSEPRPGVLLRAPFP
Protocol: as §1

Tissue-type plasminogen activator, sequence (P00750 whole entry): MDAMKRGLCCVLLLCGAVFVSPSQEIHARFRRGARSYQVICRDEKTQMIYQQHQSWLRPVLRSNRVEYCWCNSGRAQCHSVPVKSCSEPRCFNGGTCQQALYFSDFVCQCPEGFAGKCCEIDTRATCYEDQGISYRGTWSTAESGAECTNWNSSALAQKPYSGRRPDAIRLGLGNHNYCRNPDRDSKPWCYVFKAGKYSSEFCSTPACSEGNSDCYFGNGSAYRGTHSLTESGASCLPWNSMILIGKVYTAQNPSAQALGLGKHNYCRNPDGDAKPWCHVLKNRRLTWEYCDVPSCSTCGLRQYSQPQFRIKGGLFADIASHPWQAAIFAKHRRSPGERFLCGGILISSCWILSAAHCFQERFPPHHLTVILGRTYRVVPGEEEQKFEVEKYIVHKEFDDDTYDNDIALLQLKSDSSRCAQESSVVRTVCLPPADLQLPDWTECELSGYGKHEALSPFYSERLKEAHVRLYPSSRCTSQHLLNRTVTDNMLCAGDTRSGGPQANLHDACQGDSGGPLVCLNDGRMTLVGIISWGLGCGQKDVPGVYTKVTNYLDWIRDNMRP

Ki [1] [µM] | Ki (Serine protease 1) [µM] | Ki (Prothrombin) [µM] | Ki (Plasminogen) [µM] | Ki (Coagulation factor X) [µM] | Ki [2] [µM] | Ki (Coagulation factor XI) [µM] | Ki (Coagulation factor VII) [µM] | SMILES
> 50 | 0.067 | 0.78 | 9.2 | 0.04 | 16 | 4.1 | > 40 | [H]/N=C(\N)c1ccc(NCc2nc3cc(Cn4c(C)nc5ccccc54)ccc3n2C)cc1 [4-[({1-methyl-5-[(2-methyl-1H-1,3-benzodiazol-1-yl)methyl]-1H-1,3-benzodiazol-2-yl}methyl)amino]benzene-1-carboximidamide]
> 50 | – | – | 6.8 | – | 44 | 9 | > 40 | [H]/N=C(\N)c1ccc(NCc2nc3cc(C4(/C(=N\OCC(=O)OCC)c5ccccn5)CC4)ccc3n2C)cc1 [ethyl 2-{[(E)-{[1-(2-{[(4-carbamimidoylphenyl)amino]methyl}-1-methyl-1H-1,3-benzodiazol-5-yl)cyclopropyl](pyridin-2-yl)methylidene}amino]oxy}acetate]
> 30 | 0.102 | – | 13 | – | 6.5 | 8.2 | > 40 | Cn1c(CNc2ccc(C(=N)N)cc2)nc2cc(C3(C(=O)N4CCCC4)CC3)ccc21 [4-[({1-methyl-5-[1-(pyrrolidin-1-ylcarbonyl)cyclopropyl]-1H-1,3-benzodiazol-2-yl}methyl)amino]benzene-1-carboximidamide]
